This is an account of results in patent US8802593B2 (priority 2009, dated 2014).

What all share (format): in vivo
For experiment [1], the system named is Fusarium solani f. sp. pisi. Put plainly: Test Example 1: seed treatment of pea, pea root rot, control value. The note with it: Pisum sativum L seeds, Compound I 0, pea root rot after 16 days. As for the experimental part: A DMSO solution of the compound I and a DMSO solution of the compound (1b) were respectively prepared. These solutions were mixed to prepare a DMSO solution containing predetermined concentrations of the compound I and the compound (1b). Ten (10) μL of the DMSO solution and 10 g of seeds of Pisum sativum L were mixed by shaking in a 50-ml conical tube and then allowed to stand overnight to prepare treated seeds. A plastic pot was filled with sandy soil and the treated seeds were sown on it and then covered with sandy soil which had been mixed with a bran culture of Fusarium solani f. sp. pisi. The sown seeds were watered and then cultured in a greenhouse at 20 to 24° C. […] After 16 days, the occurrence of pea root rot diseases was checked and the incidence of disease was calculated by Equation 1.
For comparison, a DMSO solution containing a predetermined concentration of the compound (1b) was prepared and subjected to the same test and then the incidence of disease was determined.
(§1) In order to calculate a control value, the same test was conducted in which the plants had been treated with none of the test compounds and the incidence of disease was determined.
(§2) The control value was calculated by the Equation 2 based on the incidence of disease thus determined. […]

Experiment [2] relates to Fusarium graminearum. The note with it: corn (Pioneer) seeds; QoI alone 10 g per 100 kg seeds; 15° C. for 15 days; seedling emergence.
For experiment [3], the system named is wheat leaf rust. Put plainly: Test Example 2: foliar spray on wheat, wheat leaf rust, control value. The note with it: wheat (SHIROGANEKOMUGI) leaf spray, Compound I 0, 8 days at 23° C. As for the experimental part:
A plastic pot was filled with sandy soil and seeds of wheat (SHIROGANEKOMUGI) were sown on it, followed by cultivation in a greenhouse for 10 days. A wettable powder of the compound I was prepared by mixing 10 parts of the compound I, 35 parts of a mixture of white carbon and a polyoxyethylene alkyl ether sulfate ammonium salt (weight ratio of 1:1) and 55 parts of […], followed by grinding the mixture. A wettable powder of the compound (1b) was prepared by mixing 10 parts of the compound (1b), 35 parts of a mixture of white carbon and a polyoxyethylene alkyl ether sulfate ammonium salt (weight ratio of 1:1) and 55 parts of […], followed by grinding the mixture. […] After allowing to stand overnight at 23° C. under high humidity followed by cultivation in an artificial climate laboratory at 23° C. for 8 days, leaf area and lesion area of the wheat leaves were checked and the incidence of disease was calculated by Equation 3. […]
as §1, §2

Experiment [4] relates to Fusarium avenaceum. In words: Test Example 4: seed treatment of corn, soil with Fusarium avenaceum, control value. The note with it: corn (Pioneer) seeds; azoxystrobin alone 10 g per 100 kg seeds; 15° C. for 15 days; seedling emergence. As for the experimental part:
A DMSO solution of the compound I and a DMSO solution of azoxystrobin were respectively prepared. These solutions were mixed to prepare a DMSO solution containing predetermined concentrations of the compound I and azoxystrobin. Twenty-five (25) μL of each of the DMSO solution and 10 g of seeds of corn (Pioneer) were mixed by shaking in a 50-ml conical tube and then allowed to stand overnight to prepare treated seeds. A plastic pot was filled with sandy soil and the treated seeds were sown on it and then covered with sandy soil which had been mixed with a bran culture of Fusarium avenaceum. The sown seeds were watered and then cultured in a greenhouse at 15° C. for 15 days. The number of emerged seedlings was checked and the incidence of disease was calculated by Equation 4.
For comparison, a DMSO solution containing a predetermined concentration of azoxystrobin was prepared and subjected to the same test and then the incidence of disease was determined.
as §1
The control value was calculated by the Equation 2 based on the incidence of disease thus determined.

For the compound `CNC(=O)C(OC)c1ccccc1COc1cc(C)ccc1C` (racemic) [Compound (1b)], the Control value in experiment [1] (Compound (1b) 1 g/100 kg seeds) is reported as 64; in experiment [1] (Compound (1b) 5 g/100 kg seeds), 64; in experiment [2], 83; in experiment [3] (Compound (1b) 10 ppm), 50; in experiment [3] (Compound (1b) 20 ppm), 81.

Compound `CO/C=C(/C(=O)OC)c1ccccc1Oc1cc(Oc2ccccc2C#N)ncn1` [azoxystrobin] registered a Control value in experiment [4] of 67. As to `CO/N=C(/C(=O)OC)c1ccccc1COc1ccccc1C` [kresoxim-methyl], the Control value in experiment [2] is recorded as 67. The same measure, in the same setting: to `COC(=O)N(OC)c1ccccc1COc1ccn(-c2ccc(Cl)cc2)n1` [pyraclostrobin] belongs 83; to `COC(=O)NCc1cc(/C(C)=N/OCc2cccc(C)n2)ccc1Cl` [pyribencarb], 83. In turn, `CON=C(C(=O)OC)c1ccccc1CON=C(C)c1cccc(C(F)(F)F)c1` [trifloxystrobin] returned a Control value in experiment [2] of 83.
